Data as given in paper PMC6013267 (Medicinal chemistry research : an international journal for …, 2018).

How the values were obtained:
Aβ plaques = experiment: [3H]PIB competition autoradiography in postmortem human AD frontal cortex slices; type: binding; conditions: for displacement of [3H]PIB (words, discussion): concentration not restated
α4β2* nAChRs = α4β2* nAChRs (Rattus norvegicus, UniProt P09483+P12390); conditions: 100 nM drug; rat brain slices
amyloid β = conditions: ref Salloway et al. 2014, Doody et al. 2014, Siemers et al. 2016, cited from earlier work
[1] = 10 μM drug, control GM/WM approx. 3

Chain of α4β2* nAChRs (P09483 31-630): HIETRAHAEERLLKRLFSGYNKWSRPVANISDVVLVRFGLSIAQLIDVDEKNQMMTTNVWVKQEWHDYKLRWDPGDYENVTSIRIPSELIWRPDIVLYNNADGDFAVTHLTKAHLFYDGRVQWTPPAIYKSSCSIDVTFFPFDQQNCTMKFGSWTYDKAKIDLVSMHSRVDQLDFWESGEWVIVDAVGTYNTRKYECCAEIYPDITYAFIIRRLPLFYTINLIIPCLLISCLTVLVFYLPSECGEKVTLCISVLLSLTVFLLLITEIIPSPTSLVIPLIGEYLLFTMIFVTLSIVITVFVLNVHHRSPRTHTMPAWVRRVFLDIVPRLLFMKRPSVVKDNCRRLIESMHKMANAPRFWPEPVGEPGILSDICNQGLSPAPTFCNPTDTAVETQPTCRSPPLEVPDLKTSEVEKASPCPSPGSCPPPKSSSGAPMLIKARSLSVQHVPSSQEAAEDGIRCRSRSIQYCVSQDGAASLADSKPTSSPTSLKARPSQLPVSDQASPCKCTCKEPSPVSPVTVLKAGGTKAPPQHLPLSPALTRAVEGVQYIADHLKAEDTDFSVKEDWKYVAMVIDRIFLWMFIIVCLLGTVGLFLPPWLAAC
Chain of α4β2* nAChRs (P12390 25-500): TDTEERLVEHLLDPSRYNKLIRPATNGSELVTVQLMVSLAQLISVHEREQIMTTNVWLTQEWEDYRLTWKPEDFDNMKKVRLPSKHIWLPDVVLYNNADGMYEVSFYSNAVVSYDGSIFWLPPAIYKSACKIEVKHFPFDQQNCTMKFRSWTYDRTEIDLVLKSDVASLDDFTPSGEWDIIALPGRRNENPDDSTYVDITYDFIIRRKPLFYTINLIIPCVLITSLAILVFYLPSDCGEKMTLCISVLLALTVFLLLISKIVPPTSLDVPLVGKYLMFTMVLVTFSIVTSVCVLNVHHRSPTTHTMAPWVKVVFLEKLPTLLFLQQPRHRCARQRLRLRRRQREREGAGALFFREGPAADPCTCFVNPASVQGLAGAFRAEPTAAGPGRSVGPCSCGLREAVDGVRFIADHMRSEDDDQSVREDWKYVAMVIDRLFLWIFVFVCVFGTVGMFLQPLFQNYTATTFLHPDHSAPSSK

For `COc1cc(/C=C/C(=O)CC(=O)/C=C/c2ccc(O)c(OC)c2)ccc1O` [CUR, curcumin], the “reduction in GM/WM [3H]PIB binding” value (Aβ plaques; 10 μM drug) was 50%, the “GM/WM ratio of [3H]PIB binding” value (Aβ plaques; [1]) was 1.5 and the “displacement of [3H]PIB (words, discussion)” value (shortened to “displacement of [3H]PIB”) (Aβ plaques) was “significant displacement effect”.

For “5-(3-methoxy-4-propyloxycinnamate)-3-(2-(S)-pyrrolidinylmethoxy)pyridine [GKS-007]”, the “displacement of [3H]cytisine” value (α4β2* nAChRs) was “Displacement of significant amounts”, the “effect on [3H]PIB binding” value (Aβ plaques; 1 μM drug) was “some inhibitory effect” and the “GM/WM ratio of [3H]PIB binding” value (Aβ plaques; 1 μM drug, control GM/WM ~2) was “no significant GM/WM ratio reduction”.

In the case of “FEX-(3-methoxy-4-(1′-aminobutyryloxy)cinnamic acid [KD-003]”, the “[3H]PIB levels in GM and WM” value (Aβ plaques; 10 μM drug) is reported as “higher levels of [^3H]PIB” and the “GM/WM ratio of [3H]PIB binding” value (Aβ plaques; [1]) is reported as 2.4.

For “5-(3′-Ethyl 3-methoxy-4-propyloxycinnamate)-3-(2-(S)-pyrrolidinylmethoxy)pyridine [GKS-006]”, the “displacement of [3H]cytisine” value (α4β2* nAChRs) was “Displacement of significant amounts”.

In the case of `COc1cc(/C=C/C(=O)O)ccc1O` [FA, ferulic acid], the “effect on [3H]PIB binding” value (Aβ plaques; 1 μM drug) is reported as “did not significantly affect the binding of [^3H]PIB”, the “GM/WM ratio of [3H]PIB binding” value (Aβ plaques; 1 μM drug, control GM/WM ~2) is reported as ~ 2 and the “[3H]PIB levels in GM and WM” value (Aβ plaques; 10 μM drug) is reported as “higher levels of [^3H]PIB”. The “GM/WM ratio of [3H]PIB binding” value (Aβ plaques; [1]) was 2 and the “displacement of [3H]PIB” value (Aβ plaques) was “little displacement”.

For “solanezumab: Anti-amyloid β monoclonal antibody”, the clinical outcome (amyloid β; mild to moderate AD) is listed as “Did not improve clinical outcomes. Trials continue in early stage of disease” and the “Aβ plaque load (measured by PET imaging) before and after antibody treatment” value (amyloid β) is listed as “did not change significantly”.

For `CNc1ccc(N=Nc2ccc(N(C)C)cc2)cc1` [TAZA, 4-methylamino-4'-N,N-dimethylaminoazobenzene], the “effect on [3H]PIB binding” value (Aβ plaques; 1 μM drug) was “significant displacement of [^3H]PIB” and the “displacement of [3H]PIB” value (Aβ plaques) was “greater than observed by CUR”.
